# According to patent US10730902B2, “1,1 ′-sulfanediyl-di-beta-D-galactopyranosides as inhibitors of galectins” (GALECTO BIOTECH AB, priority 2015, dated 2020):
# Assays:
# galectins = settings: all galectins; cited from earlier work
# galectin-1 = galectin-1 (Homo sapiens (Human), UniProt P09382); assay: Fluorescence anisotropy assay, galectin-1 affinity; format: binding; settings: read-out: Gal-1 Kd
# Description: The affinity of Example 1-5 for galectins were determined by a fluorescence anisotropy assay where the compound was used as an inhibitor of the interaction between galectin and a fluorescein tagged saccharide probe as described Sörme, P., Kahl-Knutsson, B., Huflejt, M., Nilsson, U. J., and Leffler H. (2004) Fluorescence polarization as an analytical tool to evaluate galectin-ligand interactions. Anal. Biochem. 334: 36-47, (Sörme et al., 2004) and Monovalent interactions of Galectin-1 By Salomonsson, Emma; Larumbe, Amaia; Tejler, Johan; Tullberg, Erik; Rydberg, Hanna; Sundin, Anders; Khabut, Areej; Frejd, Torbjorn; Lobsanov, Yuri D.; Rini, James M.; et al, From Biochemistry (2010), 49(44), 9518-9532, (Salomonsson et al., 2010). […] 100 nM albumin was included as a carrier to prevent protein loss at such low concentration of galectin.
# Solubility = format: physicochemical
# galectin-3 = galectin-3 (Homo sapiens (Human), UniProt P17931); assay: Fluorescence anisotropy assay, galectin-3 affinity; format: binding; settings: read-out: Gal-3 Kd
# Description: Anal. Biochem. 334: 36-47, (Sörme et al., 2004) and Monovalent interactions of Galectin-1 By Salomonsson, Emma; Larumbe, Amaia; Tejler, Johan; Tullberg, Erik; Rydberg, Hanna; Sundin, Anders; Khabut, Areej; Frejd, Torbjorn; Lobsanov, Yuri D.; Rini, James M.; et al, From Biochemistry (2010), 49(44), 9518-9532, (Salomonsson et al., 2010). […] 100 nM albumin was included as a carrier to prevent protein loss at such low concentration of galectin.
# [1] = tested on: rabbit model of proliferative Vitreoretinopathy (PVR); assay: Study of ocular fibrosis in rabbits (retinal detachment, PVR model); format: in vivo, New Zealand white rabbits; settings: for reduction of size and number of subretinal glial scars and number of dividing cells: in HEC formulation, rabbit retinal detachment; for number of subretinal scars per mm of retina / scar length per mm of retina: seven days after retinal detachment; for number of subretinal scars per mm of retina / scar length per mm of retina / Ki67 labeled Muller cells per mm of retina: 50 μL IVT in HEC gel, GB1A 0.05 mg/mL, GB1B 1.5 mg/mL; for number of subretinal scars per mm of retina: HEC control 1.26; for scar length per mm of retina: HEC control 175; for Ki67 labeled Muller cells per mm of retina: three days after retinal detachment, HEC control 9.57
# Description: 30 New Zealand white rabbits were housed in metal cages that conformed to standards set forth in the Animal Welfare Act and the Guide for the Care and Use of Laboratory Animals. Space recommendations for animals were in accordance with PHS policy and the AWA.
# The vehicle gel formulation was 1.65% (w/v) HEC in NaCl. The vehicle formulation was prepared by adding the appropriate amount of HEC to 75% of the required volume of 0.9% NaCl. The resulting formulation was stirred for 20 to 25 minutes after which it was QS'ed (adjusted) to the final volume with 0.9% NaCl and stirred for an additional 2 to 3 hours at room temperature. The gel formulation was then filtered with a 0.2 μm cellulose filter.
# The test item formulations were prepared by adding the appropriate amount of GB1A or GB1B to 75% of the required volume of 0.9% NaCl. The resulting formulation was agitated for 20 to 25 minutes after which the pH of the solution was measured and adjusted, as necessary, to 6-6.5 with 0.01M NaOH. The required amount of HEC was added to the test item solution and the formulation was agitated for 20 to 25 minutes. The formulation was then QS'ed to the final volume with NaCl and agitated for an additional 2 to 3 hours at room temperature. The final gel formulation was filtered with a 0.2 μm cellulose filter.
# Retinal detachments were created by infusing a dilute solution (0.25%) of Healon into the subretinal space of the right eyes in 30 New Zealand White rabbits. Fifty (50) μL of GB1A (0.05 mg/mL), GB1B (1.5 mg/mL), or vehicle (HEC) formulations were injected intravitreally immediately after the detachment surgery in the right eyes of all animals (n=5 for each vehicle/test item at each time-point). The left eyes served as naïve controls. Euthanasia was performed by administering “Euthasol” IV via an ear vein, on animals of Groups 1 to 3, 3 days after retinal detachment (n=15) to examine the effects on proliferation, and on animals of Groups 4 to 6, 7 days after retinal detachment (n=15) to examine the effects on scaring.
# Following euthanasia, the retinas were fixed in 4% paraformaldehyde for 24 hours. Three retinal regions approximately 3 mm square were sampled from within each detached retina as well as from control retinas. The retinas were embedded in agarose and vibratomed at 100 microns in thickness. Sections were immunolabeled with antibodies to intermediate filament proteins (vimentin) and proliferating cells (Ki67). A marker for immune cells (Isolectin B4) and a nuclear stain (DAPI) was also used. All 4 probes were added to the same sections (i.e. quadruple labeling).
# The sections were imaged using an Olympus FV1000 confocal microscope. Digital images were acquired and used to determine 1) the number and size of subretinal glial scars 2) the number of dividing cells and their cell type e.g. of immune or glial origin 3) whether microglia are “activated” and 4) if macrophages are present. Animals were weighed pre-dose and at euthanasia. All animals gained a small amount of weight as was expected.
# Following euthanasia, the eyes were enucleated, the cornea and lens removed and the eyecups fixed in 4% paraformaldehyde in PBS for 24 hours. Three retinal regions approximately 3 mm^2 were dissected from within each detached retina and embedded in agarose for sectioning as described above. Following immunolabeling, the sections were mounted on glass slides and cover-slipped. Digital images were captured from along the length of each section collected from each of the 3 retinal regions using a FV1000 confocal microscope. Quantitation of scar length and number, as well as the number of dividing cells, was performed using the digital images viewed in “BioImage” (software available as a free download from UCSB's dept. of engineering). In addition, the presence of immune cells as described in the Experimental Design was noted and tabulated for each animal.
# Sequence of galectin-1 (P09382 whole entry): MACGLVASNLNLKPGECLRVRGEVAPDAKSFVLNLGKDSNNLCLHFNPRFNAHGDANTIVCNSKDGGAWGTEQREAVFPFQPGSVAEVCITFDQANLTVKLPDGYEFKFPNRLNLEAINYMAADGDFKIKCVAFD
# Sequence of galectin-3 (P17931 whole entry): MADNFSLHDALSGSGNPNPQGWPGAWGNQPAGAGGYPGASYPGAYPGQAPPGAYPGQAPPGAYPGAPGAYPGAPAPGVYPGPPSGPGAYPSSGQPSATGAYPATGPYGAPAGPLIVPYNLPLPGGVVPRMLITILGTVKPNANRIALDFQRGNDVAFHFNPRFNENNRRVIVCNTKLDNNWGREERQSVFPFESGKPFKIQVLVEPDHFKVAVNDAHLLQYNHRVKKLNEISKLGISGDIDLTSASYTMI
compound,measurement,setting,value
O=C[C@H](O)[C@@H](O)[C@@H](O)[C@H](O)CO [D-galactose],affinity relative to lactose,galectins,50-100 times lower
"OCC1O[C@@H](SC2O[C@H](CO)C(O)C(n3cc(N4CCOCC4)nn3)[C@H]2O)C(O)C(n2cc(-c3cc(F)c(F)c(F)c3)nn2)[C@H]1O (stereo partly drawn) [Example 1, 3,3′-Dideoxy-3-[4-(morpholin-4-yl)-1H-1,2,3-triazol-1-yl]-3′-[4-(3,4,5-trifluorophenyl)-1H-1,2,3-triazol-1-yl]-1,1′-sulfanediyl-di-β-D-galactopyranoside]",Kd,galectin-1,0.11 µM
"OCC1O[C@@H](SC2O[C@H](CO)C(O)C(n3cc(N4CCOCC4)nn3)[C@H]2O)C(O)[C@@H](n2cc(-c3cc(F)c(F)c(F)c3)nn2)[C@H]1O (stereo partly drawn) [Example 1, 3,3′-Dideoxy-3-[4-(morpholin-4-yl)-1H-1,2,3-triazol-1-yl]-3′-[4-(3,4,5-trifluorophenyl)-1H-1,2,3-triazol-1-yl]-1,1′-sulfanediyl-di-β-D-galactopyranoside]",solubility,Solubility,> 10 mg/mL
"CN1CCN(c2cn(C3C(O)[C@@H](CO)OC(S[C@@H]4OC(CO)[C@H](O)C(n5cc(-c6cc(F)c(F)c(F)c6)nn5)C4O)[C@@H]3O)nn2)CC1 (stereo partly drawn) [Example 2, 3,3′-Dideoxy-3-[4-(4-methylpiperazin-1-yl)-1H-1,2,3-triazol-1-yl]-3′-[4-(3,4,5-trifluorophenyl)-1H-1,2,3-triazol-1-yl]-1,1′-sulfanediyl-di-β-D-galactopyranoside]",Kd,galectin-1,0.035 µM
"CN1CCN(c2cn(C3C(O)[C@@H](CO)OC(S[C@@H]4OC(CO)[C@H](O)[C@H](n5cc(-c6cc(F)c(F)c(F)c6)nn5)C4O)[C@@H]3O)nn2)CC1 (stereo partly drawn) [Example 2, 3,3′-Dideoxy-3-[4-(4-methylpiperazin-1-yl)-1H-1,2,3-triazol-1-yl]-3′-[4-(3,4,5-trifluorophenyl)-1H-1,2,3-triazol-1-yl]-1,1′-sulfanediyl-di-β-D-galactopyranoside]",solubility,Solubility,> 10 mg/mL
"OCC1O[C@@H](SC2O[C@H](CO)C(O)C(n3cc(C4CCNCC4)nn3)[C@H]2O)C(O)[C@@H](n2cc(-c3cc(F)c(F)c(F)c3)nn2)[C@H]1O (stereo partly drawn) [Example 3, 3,3′-Dideoxy-3-[4-(piperidin-4-yl)-1H-1,2,3-triazol-1-yl]-3′-[4-(3,4,5-trifluorophenyl)-1H-1,2,3-triazol-1-yl]-1,1′-sulfanediyl-di-β-D-galactopyranoside]",solubility,Solubility,> 10 mg/mL
same,Kd,galectin-3,0.005 µM
same,Kd,galectin-1,0.029 µM
"OCC1O[C@@H](SC2O[C@H](CO)C(O)C(n3cc(C4CCOCC4)nn3)[C@H]2O)C(O)C(n2cc(-c3cc(F)c(F)c(F)c3)nn2)[C@H]1O (stereo partly drawn) [Example 4, 3,3′-Dideoxy-3-[4-(tetrahydropyran-4-yl)-1H-1,2,3-triazol-1-yl]-3′-[4-(3,4,5-trifluorophenyl)-1H-1,2,3-triazol-1-yl]-1,1′-sulfanediyl-di-β-D-galactopyranoside]",Kd,galectin-1,0.058 µM
"OCC1O[C@@H](SC2O[C@H](CO)C(O)C(n3cc(C4CCOCC4)nn3)[C@H]2O)C(O)[C@@H](n2cc(-c3cc(F)c(F)c(F)c3)nn2)[C@H]1O (stereo partly drawn) [Example 4, 3,3′-Dideoxy-3-[4-(tetrahydropyran-4-yl)-1H-1,2,3-triazol-1-yl]-3′-[4-(3,4,5-trifluorophenyl)-1H-1,2,3-triazol-1-yl]-1,1′-sulfanediyl-di-β-D-galactopyranoside]",solubility,Solubility,8.1 mg/mL
"CC(C)c1cn(C2C(O)[C@@H](CO)OC(S[C@@H]3OC(CO)[C@H](O)C(n4cc(-c5cc(F)c(F)c(F)c5)nn4)C3O)[C@@H]2O)nn1 (stereo partly drawn) [Example 5, 3,3′-Dideoxy-3-[4-(propan-2-yl)-1H-1,2,3-triazol-1-yl]-3′-[4-(3,4,5-trifluorophenyl)-1H-1,2,3-triazol-1-yl]-1,1′-sulfanediyl-di-β-D-galactopyranoside]",Kd,galectin-1,0.07 µM
"CC(C)c1cn(C2C(O)[C@@H](CO)OC(S[C@@H]3OC(CO)[C@H](O)[C@H](n4cc(-c5cc(F)c(F)c(F)c5)nn4)C3O)[C@@H]2O)nn1 (stereo partly drawn) [Example 5, 3,3′-Dideoxy-3-[4-(propan-2-yl)-1H-1,2,3-triazol-1-yl]-3′-[4-(3,4,5-trifluorophenyl)-1H-1,2,3-triazol-1-yl]-1,1′-sulfanediyl-di-β-D-galactopyranoside]",solubility,Solubility,> 10 mg/mL
"OC[C@H]1O[C@@H](S[C@@H]2O[C@H](CO)[C@H](O)[C@H](n3cc(-c4cccc(F)c4)nn3)[C@H]2O)[C@H](O)[C@@H](n2cc(-c3cccc(F)c3)nn2)[C@H]1O [GB1A, 3,3′-Dideoxy-3,3′-bis-[4-(3-fluoro-phenyl)-1H-1,2,3-triazol-1-yl]-1,1′-sulfanediyl-di-β-D-galactopyranoside]",reduction of size and number of subretinal glial scars and number of dividing cells,[1],highly effective
same,number of subretinal scars per mm of retina,[1],0.45 scars per mm of retina
same,scar length per mm of retina,[1],25.83 microns per mm of retina
same,Ki67 labeled Muller cells per mm of retina,[1],3.01 cells per mm of retina
"OC[C@H]1O[C@@H](S[C@@H]2O[C@H](CO)[C@H](O)[C@H](n3cc(-c4ccc(F)cn4)nn3)[C@H]2O)[C@H](O)[C@@H](n2cc(-c3ccc(F)cn3)nn2)[C@H]1O [GB1B, 3,3′-Dideoxy-3,3′-bis-[4-(5-fluoro-2-pyridinyl)-1H-1,2,3-triazol-1-yl]-1,1′-sulfanediyl-di-β-D-galactopyranoside]",reduction of size and number of subretinal glial scars and number of dividing cells,[1],highly effective
same,number of subretinal scars per mm of retina,[1],0.43 scars per mm of retina
same,scar length per mm of retina,[1],28.8 microns per mm of retina
same,Ki67 labeled Muller cells per mm of retina,[1],2.73 cells per mm of retina
OC[C@H]1O[C@@H](O[C@H]2[C@H](O)[C@@H](O)C(O)O[C@@H]2CO)[C@H](O)[C@@H](O)[C@H]1O (stereo partly drawn) [lactose],Kd,galectins,500 to 1000 µM
